Where two headings read alike, the source gives them in different places.
Target: rhSYK (Homo sapiens, UniProt P43405)
[1] = read-out: rhSYK Activity, Table 119, two symbols in a cell = one per listed form
[2] = read-out: rhSYK activity, class symbol given
[3] = read-out: rhSYK Activity, class symbol, where two forms are listed, one symbol per form
[4] = read-out: rhSYK Activity, Table 117

Row | Structure (SMILES) | IC50 [3] [µM] | further results
1 | Cc1cc(Nc2nccc(C(F)(F)F)n2)cc(-c2cnc(C3(O)CCC(C(N)=O)C3)s2)c1 (single isomer, unassigned) [Example 119-4] |  | IC50 [1]: < 0.1 µM
2 | Cc1cc(Nc2nccc(C)n2)cc(-c2cnc(C3(O)CCC(C(N)=O)C(C)C3)s2)c1 (single isomer, unassigned) [Example 119-6] |  | IC50 [1]: < 0.1 µM
3 | Cc1cc(Nc2nccc(C(F)(F)F)n2)cc(-c2cnc(C3(O)CCC(C(=O)O)CC3)s2)c1 (single isomer, unassigned) [33(1), trans-4-hydroxy-4-[5-(3-methyl-5-{[4-(trifluoromethyl)pyrimidin-2-yl]amino}phenyl)-1,3-thiazol-2-yl]cyclohexanecarboxylic acid] |  | IC50 [2]: < 0.1 µM
4 | Cc1cc(Nc2nccc(C(F)(F)F)n2)cc(-c2cnc([C@]3(O)CC[C@@H](NC(=O)Cc4ccccn4)CC3)s2)c1 [Example 4C-32] | < 0.1 | 
5 | Cc1cc(Nc2nccc(C(F)(F)F)n2)cc(-c2cnc(C3(O)CCC(CO)CC3)s2)c1 (stereo not drawn) [Example 4C-7] | < 0.1 | 
6 | COC(=O)C(C)(C)C(C)(O)c1ncc(-c2cc(C)cc(Nc3nccc(C(F)(F)F)n3)c2)s1 (stereo not drawn) [Example 4A-48] | < 0.1 | 
7 | Cc1cc(Nc2nccc(C(F)(F)F)n2)cc(-c2cnc(C(O)(CO)CO)s2)c1 [Example 4A-38] | < 0.1 | 
8 | Cc1cc(Nc2nccc(C(F)(F)F)n2)cc(-c2cnc(C(C)(O)c3cnc4sc(C(=O)O)c(C)c4c3)s2)c1 (stereo not drawn) [Example 4A-74] | < 0.1 | 
9 | CC(O)(c1cccnc1)c1ncc(-c2cccc(Nc3nccc(C(F)(F)F)n3)c2)s1 (stereo not drawn) [Example 4A-21] | < 0.1 | 
10 | Cc1cc(Nc2nccc(OC(C)C)n2)cc(-c2cnc(C3(O)CCC(C(N)=O)C(C)(C)C3)s2)c1 (stereo not drawn) [Example 119-126] |  | IC50 [1]: < 0.1 µM
11 | COc1cc(C(C)(O)c2ncc(-c3cc(C)cc(Nc4nccc(C(F)(F)F)n4)c3)s2)ccc1C(=O)O (stereo not drawn) [Example 4A-64] | < 0.1 | 
12 | Cc1cc(Nc2nccc(C(F)(F)F)n2)cc(-c2cnc(C(C)(O)c3cccc(C(=O)O)c3)s2)c1 (single isomer, unassigned) [Example 4A-54] | < 0.1 | 
13 | Cc1cc(Nc2nccc(C(F)(F)F)n2)cc(-c2cnc(C3(O)CCC(NC(=O)C4CCC(=O)O4)CC3)s2)c1 (stereo not drawn) [Example 4C-30] | < 0.1 | 
14 | Cc1cc(Nc2nccc(C(F)(F)F)n2)cc(-c2cnc(C(C)(O)c3ccc(Br)nc3)s2)c1 (stereo not drawn) [Example 4A-70] | < 0.1 | 
15 | COCC(C)(O)c1ncc(-c2cc(C)cc(Nc3nccc(C(F)(F)F)n3)c2)s1 (stereo not drawn) [Example 4A-32] | < 0.1 | 
16 | COC(=O)c1ccc(C(O)c2ncc(-c3cc(C)cc(Nc4nccc(C(F)(F)F)n4)c3)s2)cc1 (stereo not drawn) [Example 4A-52] | 0.1 to 1 | 
17 | OC(c1cccnc1)c1ncc(-c2cccc(Nc3nccc(C(F)(F)F)n3)c2)s1 (stereo not drawn) [Example 4A-18] | 0.1 to 1 | 
18 | Cc1cc(Nc2nccc(C(F)(F)F)n2)cc(-c2cnc(C3(O)CCC(C#N)CC3)s2)c1 (stereo not drawn) [37(1), cis-4-hydroxy-4-[5-(3-methyl-5-{[4-(trifluoromethyl)pyrimidin-2-yl]amino}phenyl)-1,3-thiazol-2-yl]cyclohexanecarbonitrile] |  | IC50 [2]: < 0.1 µM
19 | Cc1ccc(Nc2nccc(C(F)(F)F)n2)cc1-c1cnc(C2(O)CCC2)s1 [Example 1-6] | < 0.1 | 
20 | Cc1cc(Nc2nccc(C(F)(F)F)n2)cc(-c2cnc([C@]3(O)CC[C@H](C(N)=O)CC3)s2)c1 [38(1), trans-4-hydroxy-4-[5-(3-methyl-5-{[4-(trifluoromethyl)pyrimidin-2-yl]amino}phenyl)-1,3-thiazol-2-yl]cyclohexanecarboxamide] |  | IC50 [2]: < 0.1 µM
21 | Cc1cc(Nc2nccc(C(F)(F)F)n2)cc(-c2cnc(C3(O)CCC(O)CC3)s2)c1 (stereo not drawn) [8(2), trans-1-[5-(3-methyl-5-{[4-(trifluoromethyl)pyrimidin-2-yl]amino}phenyl)-1,3-thiazol-2-yl]-cyclohexane-1,4-diol] |  | IC50 [2]: < 0.1 µM

Row | Structure (SMILES) | IC50 [3] [µM] | further results
22 | Cc1cc(Nc2nccc(C(F)(F)F)n2)cc(-c2cnc(C(=O)CCC#N)s2)c1 [Example 4B-59] | < 0.1 | 
23 | Cc1cc(Nc2nccc(C(C)O)n2)cc(-c2cnc(C3(O)CCC(C(N)=O)C(C)(C)C3)s2)c1 (stereo not drawn) [Example 119-121] |  | IC50 [1]: < 0.1 µM
24 | OC(c1ccoc1)c1ncc(-c2cccc(Nc3nccc(C(F)(F)F)n3)c2)s1 (stereo not drawn) [Example 4A-17] | < 0.1 | 
25 | Cc1cc(Nc2nccc(C(F)(F)F)n2)cc(-c2cnc(C(C)(O)c3cncc(Br)c3)s2)c1 (stereo not drawn) [Example 4A-71] | < 0.1 | 
26 | O=C(c1ccoc1)c1ncc(-c2cccc(Nc3nccc(C(F)(F)F)n3)c2)s1 [Example 4B-4] | 0.1 to 1 | 
27 | Cc1cc(Nc2nccc(C(F)(F)F)n2)cc(-c2cnc(C3(O)CCC(CC(N)=O)CC3)s2)c1 (stereo not drawn) [Example 117-9] |  | IC50 [4]: < 0.1 µM
28 | Cc1cc(Nc2nccc(C(F)(F)F)n2)cc(-c2cnc(C(C)(O)c3cccc(C(=O)O)c3)s2)c1 (single isomer, unassigned) [Example 4A-55] | < 0.1 | 
29 | CCC(=O)C(O)(CC)c1ncc(-c2cccc(Nc3nccc(C(F)(F)F)n3)c2)s1 (stereo not drawn) [Example 4A-28] | 0.1 to 1 | 
30 | COc1cc(C(C)(O)c2ncc(-c3cc(C)cc(Nc4nccc(C(F)(F)F)n4)c3)s2)ccc1C(=O)O (single isomer, unassigned) [Example 4A-65] | < 0.1 | 
31 | OC1(c2ncc(-c3cc(Nc4nccc(C(F)(F)F)n4)ccc3Cl)s2)CCC1 [Example 1-2] | 0.1 to 1 | 
32 | Cc1cc(Nc2ncc(F)c(C3CC3)n2)cc(-c2cnc(C(C)(O)CO)s2)c1 (stereo not drawn) [Ex 5-16] | < 0.1 | 
33 | Cc1cc(Nc2nccc(C(F)(F)F)n2)cc(-c2cnc(C3(O)CCC(C(=O)O)CC3)s2)c1 (single isomer, unassigned) [33(2), cis-4-hydroxy-4-[5-(3-methyl-5-{[4-(trifluoromethyl)pyrimidin-2-yl]amino}phenyl)-1,3-thiazol-2-yl]cyclohexanecarboxylic acid] |  | IC50 [2]: < 0.1 µM
34 | CC(O)(c1ncc(-c2cccc(Nc3nccc(C(F)(F)F)n3)c2)s1)C(F)F (stereo not drawn) [Example 4A-10] | < 0.1 | 
35 | Cc1cc(Nc2nccc(C(F)(F)F)n2)cc(-c2cnc(C(O)(CO)C(F)(F)F)s2)c1 (stereo not drawn) [Example 6-7] | < 0.1 | 
36 | Cc1cc(Nc2nccc(C(F)(F)F)n2)cc(-c2cnc(C(C)(O)c3cc(CC(=O)O)cs3)s2)c1 (stereo not drawn) [Example 4A-63] | < 0.1 | 
37 | Cc1cc(Nc2nccc(C(F)(F)F)n2)cc(-c2cnc([C@]3(O)CC[C@@H](O)CC3)s2)c1 [Example 8(1), cis-1-[5-(3-methyl-5-{[4-(trifluoromethyl)pyrimidin-2-yl]amino}phenyl)-1,3-thiazol-2-yl]-cyclohexane-1,4-diol] |  | IC50 [2]: < 0.1 µM
38 | Cc1cc(Nc2nccc(C(F)(F)F)n2)cc(-c2cnc([C@]3(O)CC[C@@H](CC(=O)O)CC3)s2)c1 [Example 4C-14] | < 0.1 | 
39 | CC(C)(O)c1ncc(-c2cccc(Nc3nccc(C(F)(F)F)n3)c2)s1 [Example 4A-1] | < 0.1 | 
40 | Cc1cc(Nc2nccc(C(F)(F)F)n2)cc(-c2cnc(C(C)(O)c3ccc(C(C)O)cc3)s2)c1 (stereo not drawn) [Example 8B-4] | < 0.1 | 
41 | Cc1cc(Nc2nccc(C(F)(F)F)n2)cc(-c2cnc(C(C)(O)c3ccc(C(N)=O)cc3)s2)c1 (single isomer, unassigned) [Example 117-21] |  | IC50 [4]: < 0.1 µM
42 | Cc1cc(Nc2nccc(C(F)(F)F)n2)cc(-c2cnc(C(C)(O)c3noc(C)n3)s2)c1 (stereo not drawn) [Example 4A-36] | < 0.1 | 

Row | Structure (SMILES) | IC50 [3] [µM] | further results
43 | Cc1cc(Nc2nccc(C(F)(F)F)n2)cc(-c2cnc(C(O)(c3ccccn3)C(C)C)s2)c1 (stereo not drawn) [Example 4A-49] | 0.1 to 1 | 
44 | Cc1cc(Nc2nccc(C(F)(F)F)n2)cc(-c2cnc(C3(O)CCC(C(N)=O)C3)s2)c1 (single isomer, unassigned) [Example 119-3] |  | IC50 [1]: < 0.1 µM
45 | Cc1cc(Nc2nccc(C(F)(F)F)n2)cc(-c2cnc(C3(O)CCCC4(OCCO4)C3(C)C)s2)c1 (stereo not drawn) [Example 4B-28] | 0.1 to 1 | 
46 | CCOC(=O)C(O)(c1ncc(-c2cc(C)cc(Nc3nccc(C(F)(F)F)n3)c2)s1)C(F)(F)F (stereo not drawn) [Example 6-6] | < 0.1 | 
47 | CC(O)(c1ncc(-c2cccc(Nc3nccc(C(F)(F)F)n3)c2)s1)C(F)(F)C(F)(F)C(F)(F)F (stereo not drawn) [Example 4A-31] | 1 to 10 | 
48 | Cc1cc(Nc2nccc(C(F)(F)F)n2)cc(-c2cnc(C(C)(O)c3cccc(OCC(=O)O)c3)s2)c1 (stereo not drawn) [Example 4A-67] | < 0.1 | 
49 | COc1cc(C(C)(O)c2ncc(-c3cc(C)cc(Nc4nccc(C(F)(F)F)n4)c3)s2)ccc1C(=O)O (single isomer, unassigned) [Example 4A-66] | < 0.1 | 
50 | OC1(c2ncc(-c3cc(Nc4nccc(C(F)(F)F)n4)ccc3OCc3ccccc3)s2)CCC1 [Example 1-4] | 0.1 to 1 | 
51 | OC(c1ccc(Br)cn1)(c1ncc(-c2cccc(Nc3nccc(C(F)(F)F)n3)c2)s1)C(F)F (stereo not drawn) [Example 4A-13] | 0.1 to 1 | 
52 | C=CCCC(C)(O)c1ncc(-c2cc(C)cc(Nc3nccc(C(F)(F)F)n3)c2)s1 (stereo not drawn) [Example 4A-43] | < 0.1 | 
53 | Cc1cc(Nc2nccc(C(F)(F)F)n2)cc(-c2cnc(C(C)(O)c3ncnn3C)s2)c1 (stereo not drawn) [Example 4A-35] | < 0.1 | 
54 | CC(C)n1cc(C(O)c2ncc(-c3cccc(Nc4nccc(C(F)(F)F)n4)c3)s2)cn1 (stereo not drawn) [Example 4A-20] | 0.1 to 1 | 
55 | Cc1cc(Nc2ncc(Cl)cn2)cc(-c2cnc(C(C)(O)CO)s2)c1 (stereo not drawn) [Ex 5-12] | < 0.1 | 
56 | CC(=O)OCCC(C)(O)c1ncc(-c2cccc(Nc3nccc(C(F)(F)F)n3)c2)s1 (stereo not drawn) [Example 4A-25] | 0.1 to 1 | 
57 | Cc1cc(Nc2nccc(C(F)(F)F)n2)cc(-c2cnc(C(C)(O)CCCN)s2)c1 (stereo not drawn) [Example 4A-46] | < 0.1 | 
58 | Cc1cc(Nc2nccc(C(F)(F)F)n2)cc(-c2cnc(C3(O)CCC3)s2)c1 [Example 4B-1] | < 0.1 | 
59 | COc1ccsc1C(C)(O)c1ncc(-c2cc(C)cc(Nc3nccc(C(F)(F)F)n3)c2)s1 (stereo not drawn) [Example 4A-50] | < 0.1 | 
60 | CC(=O)c1ccc(C(C)(O)c2ncc(-c3cc(C)cc(Nc4nccc(C(F)(F)F)n4)c3)s2)cc1 (stereo not drawn) [Example 4A-51] | < 0.1 | 
61 | Cc1cc(Nc2nccc(C(F)(F)F)n2)cc(-c2cnc(C(C)(O)c3cccc(C(=O)O)c3)s2)c1 (stereo not drawn) [Example 4A-53] | < 0.1 | 
62 | Cc1cc(Nc2ncc(F)c(C3CC3)n2)cc(-c2cnc(C(C)(O)CO)s2)c1 (stereo not drawn) [Ex 5-17] | < 0.1 | 
63 | Oc1ccc(Nc2nccc(C(F)(F)F)n2)cc1-c1cnc(C2(O)CCC2)s1 [Example 1-5] | < 0.1 | 

Source: patent US8551984B2, “Aminopyrimidines as SYK inhibitors” (Merck Sharp & Dohme Corp., priority 2009, dated 2013)
